Measured values: patent US12202849B2, “Crystalline forms of tenofovir alafenamide” (Gilead Sciences, Inc., priority 2017, dated 2025)

Conditions: deionized water, approximately 22° C., room temperature
Procedure: In a vial that contains pre-weighed amount of solid, deionized water was added in small increments at approximately 22° C. The solid/liquid mixture was agitated by a vortex mixer and held at room temperature. Continued to add deionized water and repeated the mixing until the solid was fully dissolved.

Substance: tenofovir alafenamide hemifumarate [TAF Hemifumarate]
- Solubility: 20 mg/mL
